Measurements as given in article PMC4179164, “Ophiobolin A from Bipolaris oryzae Perturbs Motility and Membrane Integrities of Porcine Sperm and Induces Cell Death on Mammalian Somatic Cell Lines” (Toxins, 2014).
Converted amounts (≈) assume the structure as drawn.

Experiments:
[1] = tested on: murine neuroblastoma (MNA) cells; assay: Somatic cell toxicity assay (resazurin reduction), MNA; type: cell-based; settings: Mus musculus, read-out: IC50, cell proliferation
Description: (§1) Viability assays, based on resazurin-resorufin transformation, represent excellent correlation to generally used reference assays, such as formazan- and tritiated thymidine based methods. In our experiments, proliferating murine neuroblastoma (MNA), feline fetus lung (FFL) and porcine kidney (PK-15) cells were treated with OPA. […] These values were remarkably less than the concentrations causing sperm toxicity and motility inhibition.
(§2) Cytotoxicity against somatic cells was tested with feline fetus lung cells (FFL) cultivated as described by Andersson et al. and murine neuroblastoma cells (MNA) as described by Kulonen et al. as well as porcine kidney tubular epithelial cell line (PK-15), cultured as reported earlier. All somatic cell lines were maintained in an atmosphere of 95% air, 5% CO2 and 95% relative humidity at 37 °C on RPMI 1640 (complete medium) in a cell culture cabinet (Heracell 150i; Thermo Fisher Scientific, Vantaa, Finland). The detached cells were seeded onto 96 well microtiter plates and exposed to the purified OPA, the final concentration of which ranged from 48.8 ng mL^−1 to 25 μg mL^−1 containing 10 levels in methanol. […] Then, the plates were analyzed by a microtiter plate reader (Fluoroskan Ascent, Thermo Scientific, Vantaa, Finland) at the excitation and emission wavelengths of 544 nm and 590 nm, respectively. […]

[2] = Somatic cell toxicity assay (resazurin reduction), PK-15; type: cell-based, porcine; settings: pig, PK-15 cells (porcine kidney tubular epithelial cell line); read-out: Toxic endpoint EC50, Cytotoxicity, PK-15 cells
Description: as §1, §2

[3] = tested on: porcine kidney (PK-15) cells; assay: as above; type: cell-based; settings: Sus scrofa; PK-15 cells, resazurin; read-out: IC50, cell proliferation
Description: as §1, §2

boar spermatozoa [4] = assay: Shivering tail beating induction in exposed sperm cells; type: cell-based
Description: (§3) This phenomenon may indicate that the cell still produce ATP and NADH in the cytoplasm after the OPA treatment, which differs from the effect caused by cation channel forming alamethicin, which depletes the sperm cells from motility, plasma membrane integrity as well as NADH and ATP production at similar concentrations. To confirm the effect of OPA on the plasma membrane permeability, the viability staining with propidium iodide (PI) and calcein-AM was performed after one day incubation at room temperature, (similar conditions as the JC-1 staining) where the EC50 value appeared at 1.6 μg mL^−1, over twice the concentrations that depolarized the mitochondria (Table 1).
Microscopic area containing shivering sperm cell is enlarged at top right of the picture.

boar spermatozoa [5] = assay: Cell membrane permeability assay on motile sperm cells (PI staining); type: cell-based; settings: for EC50: Spermatozoa
Description: To test the effect of OPA exposure on sperm cells in physiological conditions (swimming at 37 °C) the plasma membrane disruption on motile sperm cells was measured with the viability PI stain, where the loss of plasma membrane integrity was detected as appearance of red color stained nuclei in the damaged cells. In this assay, sperm cells were exposed to OPA at 37 °C and motility of the exposed sperm cells was induced and maintained for 2 h.
Cell membrane permeability assay on motile sperm cells was inspected by staining with PI (Molecular Probes, Eugene, OR, USA) in sperm cells induced to swim by shaking at 37 °C. One hundred and fifty μL aliquots of commercial extended boar semen with a density of 27 × 10^6 sperms mL^−1 were pipetted into microtiter plate wells and serially diluted methanolic solution of OPA were added in the concentration range of 200 ng mL^−1 to 4 μg mL^−1 including 6 levels and an additional methanol blank, and pre-incubated for 2 h on orbital shaker (Innova 5000 new Brunswick Scientific, Enfield, CT, USA) (160 rpm) at 37 °C. Four parallel measurements were done for each dilution. One ml PI solution (1 mg mL^−1 in Dulbeco’s phosphate buffered saline) was mixed with 3 mL of […] Dulbeco’s phosphate buffered saline. One hundred and fifty μL of this stain mixture was added to 150 μL of exposed boar semen. This suspension was incubated for 15 min at 37 °C in dark and measured using a microplate reader (Fluoroskan Ascent, Thermo Scientific, Vantaa, Finland) at excitation and emission wavelengths of 544 nm and 600 nm, respectively. For observing plasma membrane damage by PI staining frozen-thawed semen was used as a positive control (for mortality of 100%) representing the maximal fluorescence emitted by the cells permeable to PI and Dulbeco’s phosphate buffered saline was applied as background control (blank). Loss of viability in the sample was calculated as described in Alm et al.. The frozen sample represented 100% loss of viability. The assay was calibrated with triclosan (Sigma Chemical Co., St. Louis, MO, USA), in 5 parallel tests, the EC50 was 2 μg mL^−1 (SD ± 0.6). Cell membrane permeability assay on static sperm cells at room temperature was carried out by viability staining with PI and calcein-AM (Molecular Probes, Eugene, OR, USA) according to Hoornstra et al. in same concentration range and levels described above.

[6] = tested on: feline fetus lung (FFL) cells; assay: Somatic cell toxicity assay (resazurin reduction), FFL; type: cell-based; settings: Felis catus, read-out: IC50, cell proliferation
Description: as §1, §2

boar spermatozoa [7] = assay: Cell membrane permeability assay on static sperm cells (PI and calcein-AM staining); type: cell-based; settings: 24 h, read-out: Toxic endpoint EC50, Permeability to PI on static cells
Description: as §3
Cell membrane permeability assay on motile sperm cells was inspected by staining with PI (Molecular Probes, Eugene, OR, USA) in sperm cells induced to swim by shaking at 37 °C. […] This suspension was incubated for 15 min at 37 °C in dark and measured using a microplate reader (Fluoroskan Ascent, Thermo Scientific, Vantaa, Finland) at excitation and emission wavelengths of 544 nm and 600 nm, respectively. For observing plasma membrane damage by PI staining frozen-thawed semen was used as a positive control (for mortality of 100%) representing the maximal fluorescence emitted by the cells permeable to PI and Dulbeco’s phosphate buffered saline was applied as background control (blank). […]

L1210 cell line = settings: cited from earlier work

For CC(C)=C[C@H]1C[C@H](C)[C@]2(CC[C@]3(C)C[C@H]4[C@H](C(=O)C[C@@]4(C)O)/C(C=O)=C\C[C@H]32)O1 [OPA, ophiobolin A], the IC50 [1] was < 0.0488 µg/mL, the EC50 at 3 days [2] was 0.1 µg/mL (≈ 0.25 µM) and the IC50 [3] was 0.0488 to 0.0976 µg/mL (≈ 0.122 to 0.244 µM). The EC50 (boar spermatozoa [4]; Spermatozoa, read-out: Toxic endpoint EC50, Shivering tail beating induction) was 0.5 µg/mL (≈ 1.25 µM), the “Concentration inducing shivering tail beating with depolarisation of mitochondria” value (boar spermatozoa [4]; exposure at room temperature) was < 1 µg/mL and the EC50 (boar spermatozoa [5]; 2 h, read-out: Toxic endpoint EC50, Permeability to PI on motile cells) was 1.6 µg/mL (≈ 3.99 µM). For the same compound, the EC50 (boar spermatozoa [5]; 37 °C, motility maintained for 2 h, read-out: EC50, loss of plasma membrane integrity (PI) on motile sperm cells) was 0.8 to 1.6 µg/mL (≈ 2 to 3.99 µM), the “Concentration lethal to the sperm cells (disrupting the plasma membrane)” value (boar spermatozoa [5]; motile at 37 °C, after 2 h) was “below 2000 ng/mL” and the “Concentration inducing lethal damage (loss of plasma membrane integrity)” value (boar spermatozoa [5]; swimming at 37 °C, short period) was < 1 µg/mL. For the same compound, the IC50 [6] was 0.0488 µg/mL (≈ 0.122 µM), the EC50 (boar spermatozoa [7]) was 1.6 µg/mL (≈ 3.99 µM) and the “IC50, induced cell death” value (L1210 cell line) was 120 µg/mL (≈ 300 µM).
